{"source": "patent US20070254038A1", "about": "“Microspheroidal Controlled Release Of Biomolecules” (The Trustees of the University of Pennsylvania, priority 2006, published 2007)", "assay": "Incorporation of vancomycin into acid-catalyzed (AC) and acid-base catalyzed (ABC) sols: clear vs cloudy (precipitation)", "assay_type": "physicochemical", "protocol": "TEOS (10 ml) and 0.1 M HCl (2.4 ml), with or without the addition of deionized water, were mixed using a magnetic stirrer until a one-phase sol was formed. The water/TEOS molar ratio varied from 0 to 10. Pharmaceutical agents were then added to the sol. For example, Sols with 20 mg/g and 30 mg/g of vancomycin (drug to SiO2 ratio), and sols with 50 mg/g and 80 mg/g of bupivacaine per gram SiO2 were made by adding corresponding amounts of the drug. The sol containing added pharmaceutical agents was mixed for 30 minutes at 660 rpm and was then allowed to stand for 15 minutes. Subsequently, 0.08 M NH4OH (2.2-2.4 ml) was added dropwise to the sol, which was stirred at 660 rpm targeting a final pH of about 5.5. Under these conditions, the time to gelation varied from about 20 and 40 minutes. Upon mixing, the sol was added dropwise into vegetable oil stirred at speeds between 220 and 440 rpm and microspheres precipitated to the bottom of the beaker. Microspheres were filtered through a 70 μm nylon microporous filter and then rinsed with DI water and alcohol. The microspheres were left to dry overnight in a laminar flow hood.\nVancomycin (vancomycin-HCl; Abbott Labs, Chicago, Ill.) dissolved in water at 100 mg/ml was used for incorporation into the sols. Bupivacaine (Spectrum, New Brunswick, N.J.) dissolved in methanol at 70 mg/ml was also used for incorporation into the sols.\nThe effect of water content on the incorporation of vancomycin into the sol was studied by using either “water-free” (no additional water added other than that contained in the aqueous HCl solution) acid-catalyzed sols or sols with added water/TEOS molar ratios (R) of 5, 6, 8, and 10. […] When water was added at R=4, low doses of vancomycin such as 16.7 mg/g SiO2 could be added to the acid-catalyzed sol.", "note": "Entries after “also recorded” stand apart in the source; their conditions may differ."}
{"smiles": "CN[C@H](CC(C)C)C(=O)N[C@H]1C(=O)N[C@@H](CC(N)=O)C(=O)N[C@H]2C(=O)N[C@H]3C(=O)N[C@H](C(=O)N[C@H](C(=O)O)c4cc(O)cc(O)c4-c4cc3ccc4O)[C@H](O)c3ccc(c(Cl)c3)Oc3cc2cc(c3O[C@@H]2O[C@H](CO)[C@@H](O)[C@H](O)[C@H]2O[C@H]2C[C@](C)(N)[C@H](O)[C@H](C)O2)Oc2ccc(cc2Cl)[C@H]1O", "note": "[Vancomycin, vancomycin]", "values": [{"measurement": "appearance of sol on incorporation of vancomycin", "setting": "water-free AC sol, vancomycin loading 16.7 mg/g", "value": "cloudy"}, {"measurement": "appearance of sol on incorporation of vancomycin", "setting": "water/TEOS R=4, ABC sol (after base), loading 16.7 mg/g", "value": "precipitation of vancomycin was seen; also recorded: cloudy"}, {"measurement": "appearance of sol on incorporation of vancomycin", "setting": "water/TEOS R=4, AC sol, loading 16.7 mg/g", "value": "clear"}, {"measurement": "appearance of sol on incorporation of vancomycin", "setting": "water/TEOS R=5, ABC sol (after base), loading 28 mg/g", "value": "vancomycin precipitation was observed; also recorded: cloudy"}, {"measurement": "appearance of sol on incorporation of vancomycin", "setting": "water/TEOS R=5, ABC sol, loading 16.7 mg/g", "value": "clear"}, {"measurement": "appearance of sol on incorporation of vancomycin", "setting": "water/TEOS R=5, ABC sol, loading 22.2 mg/g", "value": "clear"}, {"measurement": "appearance of sol on incorporation of vancomycin", "setting": "water/TEOS R=5, AC sol, loading 16.7 mg/g", "value": "clear"}, {"measurement": "appearance of sol on incorporation of vancomycin", "setting": "water/TEOS R=5, AC sol, loading 22.2 mg/g", "value": "clear"}, {"measurement": "appearance of sol on incorporation of vancomycin", "setting": "water/TEOS R=5, AC sol, loading 28 mg/g", "value": "clear"}, {"measurement": "precipitation after the addition of the drug and base", "setting": "water/TEOS R=5, doses up to 20 mg/g SiO2", "value": "no precipitation was observed"}, {"measurement": "appearance of sol on incorporation of vancomycin", "setting": "water/TEOS R=8, ABC sol, loading 22.2 mg/g", "value": "clear"}, {"measurement": "appearance of sol on incorporation of vancomycin", "setting": "water/TEOS R=8, ABC sol, loading 33 mg/g", "value": "clear"}, {"measurement": "appearance of sol on incorporation of vancomycin", "setting": "water/TEOS R=8, AC sol, loading 22.2 mg/g", "value": "clear"}, {"measurement": "appearance of sol on incorporation of vancomycin", "setting": "water/TEOS R=8, AC sol, loading 33 mg/g", "value": "clear"}, {"measurement": "appearance of sol on incorporation of vancomycin", "setting": "water/TEOS R=10, ABC sol, loading 22.2 mg/g", "value": "clear"}, {"measurement": "appearance of sol on incorporation of vancomycin", "setting": "water/TEOS R=10, AC sol, loading 22.2 mg/g", "value": "clear"}, {"measurement": "incorporation of higher loads into the sol", "setting": "water/TEOS ratios 8 and above, load such as 28 mg/g SiO2", "value": "successfully incorporated"}]}
